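Values below derive from 48-hour exposures of cells grown in 96-well plates, with endpoints linearly interpolated between the two concentrations bracketing the appropriate inhibition level. GI50 = concentration required for 50% inhibition of growth. At the TGI there is no net growth.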
Legend:
Assay in all cases: NCI-60 cell line screen, 48 h
DU-145 prostate = tested on: DU-145 prostate
EKVX NSCLC = tested on: EKVX NSCLC
HS 578T breast = tested on: HS 578T breast
HT29 colon = tested on: HT29 colon
NCI-H226 lung = tested on: NCI-H226 lung
OVCAR-8 ovarian = tested on: OVCAR-8 ovarian
T-47D breast = tested on: T-47D breast
U251 CNS = tested on: U251 CNS
CCRF-CEM leukemia = tested on: CCRF-CEM leukemia
NCI/ADR-RES ovarian = tested on: NCI/ADR-RES ovarian

| Structure (SMILES) | TGI (DU-145 prostate) | TGI (EKVX NSCLC) | TGI (HS 578T breast) | TGI (HT29 colon) | TGI (NCI-H226 lung) | TGI (OVCAR-8 ovarian) | TGI (T-47D breast) | TGI (U251 CNS) | GI50 (CCRF-CEM leukemia) | TGI (CCRF-CEM leukemia) | GI50 (HS 578T breast) | GI50 (HT29 colon) | GI50 (NCI-H226 lung) | GI50 (NCI/ADR-RES ovarian) | TGI (NCI/ADR-RES ovarian) | GI50 (OVCAR-8 ovarian) | GI50 (T-47D breast) | GI50 (U251 CNS) | GI50 (DU-145 prostate) | GI50 (EKVX NSCLC) |
| --- | --- | --- | --- | --- | --- | --- | --- | --- | --- | --- | --- | --- | --- | --- | --- | --- | --- | --- | --- | --- |
| CC(C)(O)C1CC(=O)C(C)(C2C(O)CC3(C)C4CC=C5C(CCC(O)C5(C)C)C4(C)C(=O)CC23C)O1 (centres undefined) | > 100 µM | > 100 µM | > 100 µM | > 100 µM | > 100 µM | > 100 µM | > 100 µM | > 100 µM |  |  |  |  |  |  |  |  |  |  |  |  |
| O=C1/C(=C/c2ccc([N+](=O)[O-])s2)Oc2ccc(Cl)cc21 |  |  | > 100 µM | 5.49 µM | 3.93 µM | 4.91 µM | 1.64 µM | 0.694 µM | 0.273 µM | 0.72 µM | 0.372 µM | 2.21 µM | 1.39 µM | 0.738 µM | 2.89 µM | 0.33 µM | 0.309 µM | 0.263 µM |  |  |
| CCOc1ccccc1Nc1nc(C)c(C(=O)CC(=O)C(=O)Nc2ccccc2)s1 |  | > 100 µM |  | > 100 µM | > 100 µM | > 100 µM |  | > 100 µM |  | > 100 µM |  |  |  |  |  |  |  |  |  |  |
| O=C1[C@@H]2C3C=CC([C@H]4C(=O)N(CO)C(=O)[C@@H]34)[C@@H]2C(=O)N1CO |  | > 100 µM |  | > 100 µM | > 100 µM | 97.6 µM |  | > 100 µM |  | 59.3 µM |  |  |  |  |  |  |  |  |  |  |
| COc1cc(/C=C/C(=O)C(C)(C)C)cc(OC)c1OC |  | > 100 µM |  | > 100 µM | 97.9 µM | > 100 µM |  | > 100 µM |  | > 100 µM |  |  |  |  |  |  |  |  |  |  |
| O=c1c2ccccc2nc(-c2ccccc2Cl)n1NC1OC(CO)C(O)C(O)C1O (centres undefined) |  | > 100 µM |  | > 100 µM | > 100 µM | > 100 µM |  | > 100 µM |  | > 100 µM |  |  |  |  |  |  |  |  |  |  |
| O=C1c2cccc3cc4ccccc4c(c23)C(=O)N1CCCNCCNCCCN1C(=O)c2cccc3cc4ccccc4c(c23)C1=O | 2.04 µM | 2.37 µM | 1.98 µM | 0.555 µM |  | 0.337 µM | 2.54 µM | 1.73 µM |  |  |  |  |  |  |  |  |  |  |  |  |
| Cc1cccc(NC(=O)c2sc3nc4c(cc3c2N)CCC4)c1C | 13.9 µM |  | 16 µM |  | 36.8 µM | 16.6 µM | 34.7 µM | 15.8 µM | 0.321 µM | 35.8 µM | 0.486 µM |  | 2.65 µM | 0.279 µM | 10.3 µM | 0.427 µM | 0.351 µM | 0.457 µM | 0.407 µM |  |
| CCCCCCCCCCCCOC1C(C(COC2OC(C(O)CO)C3OC(C)(C)OC23)OC(=O)Nc2ccc([N+](=O)[O-])cc2)OC2OC(C)(C)OC21 (centres undefined) | 7.17 µM | 6.21 µM | 3.74 µM | 7.94 µM | 11.2 µM | 14.5 µM | 16.9 µM | 3.59 µM |  |  | 1.88 µM | 2.57 µM | 2.98 µM | 12.3 µM | 26.5 µM | 3.59 µM | 4.71 µM | 1.85 µM | 2.52 µM | 2.34 µM |
| S=C(N/N=C/c1ccccc1)NC1CC(c2ccccc2)Oc2ccccc21 (centres undefined) |  | > 100 µM |  | > 100 µM | > 100 µM | > 100 µM |  | > 100 µM |  |  |  |  |  |  |  |  |  |  |  |  |
| CC(=O)/C=C\C(=O)NNS(=O)(=O)c1ccc(C)cc1 |  | > 100 µM |  | > 100 µM | > 100 µM | > 100 µM |  | > 100 µM |  | > 100 µM |  |  |  |  |  |  |  |  |  |  |
| COC(=O)[C@@H](C)C[C@H](Cc1ccccc1)NC(=O)c1cccc([C@@H](C[C@H](C(C)C)N(C)C(=O)[C@@H](NC(=O)[C@H]2CCCCN2C)C(C)C)OC(C)=O)n1 |  | > 16.7 µM | > 11.8 µM | > 16.7 µM |  | > 16.7 µM |  | > 16.7 µM | 0.00203 µM | > 16.7 µM | 0.00342 µM | < 0.00167 µM |  | 0.152 µM | > 5.17 µM | 0.00243 µM |  | < 0.00167 µM | < 0.00167 µM | 0.00497 µM |
| COc1ccc(C2CC(c3cccc(Nc4ccnc5cc(Cl)ccc45)c3)=NN2c2ccc(Cl)cc2)cc1 (centres undefined) | > 100 µM |  | > 100 µM |  | 94.8 µM | 91 µM | 33.2 µM |  | 1.84 µM | 43.4 µM | 14.7 µM |  | 14.2 µM | 9.51 µM | 43.4 µM | 5 µM | 0.702 µM |  | 28.4 µM |  |
| Cc1nn(C(=O)CC(=O)Nc2ccccc2Cl)c(C)c1N=Nc1ccccc1Cl |  | > 100 µM |  | > 100 µM |  | > 100 µM |  | > 100 µM |  | > 100 µM |  |  |  |  |  |  |  |  |  |  |
| O=S(O)CCCSSCCCCSSCCCS(=O)O |  | > 100 µM |  | > 100 µM |  | > 100 µM |  | > 100 µM |  | > 100 µM |  |  |  |  |  |  |  |  |  |  |
| CC(=O)NC(Cc1ccccc1)C(=S)N1CCCC1 (centres undefined) |  | > 100 µM |  | > 100 µM | > 100 µM | > 100 µM |  | > 100 µM |  | > 100 µM |  |  |  |  |  |  |  |  |  |  |
| C/C(=C1/N=C(c2ccccc2)OC1=O)c1cccs1 | > 100 µM | > 100 µM | > 100 µM | > 100 µM | > 100 µM | > 100 µM | > 100 µM | > 100 µM |  | > 100 µM |  |  |  |  |  |  |  |  |  |  |
| COc1ccc2nccc(C3OC(=O)N4CCC(=O)CC34)c2c1 (centres undefined) |  | > 100 µM |  | > 100 µM | > 100 µM | > 100 µM |  | > 100 µM |  | > 100 µM |  |  |  |  |  |  |  |  |  |  |
| O=C(/C=C\c1ccc(Cl)c(Cl)c1)c1ccccc1 | 21.9 µM |  | 52.5 µM | 5.37 µM | 30.7 µM | 15.1 µM |  | 15.6 µM | 2.68 µM | 8.78 µM | 17 µM | 2.27 µM | 13.9 µM | 5.49 µM | 26.4 µM | 3.98 µM |  | 3.34 µM | 10.1 µM |  |
| CC(=O)NC1C(=O)CC(c2ccccc2)N(C)C1c1ccccc1 (centres undefined) |  | > 100 µM |  | > 100 µM | > 100 µM | > 100 µM |  | > 100 µM |  | > 100 µM |  |  |  |  |  |  |  |  |  |  |
| NCCN.O=N[O-].O=N[O-].O=N[O-].O=N[O-].[Co+3].[K+] |  | > 100 µM |  | > 100 µM |  | > 100 µM |  | > 100 µM | > 100 µM | > 100 µM |  | > 100 µM |  |  |  | > 100 µM |  | > 100 µM |  | > 100 µM |
| O=c1[nH]c2cccccc-2c1-c1nc2ccccc2[nH]1 |  | > 100 µM |  | > 100 µM | 35.6 µM | 96.7 µM |  | 68 µM |  | > 100 µM |  |  |  |  |  |  |  |  |  |  |
| O=C1OC2C(O)COC2(OCc2c[nH]c3ccccc23)C1O (centres undefined) (tested in a mixture with another compound) |  | > 100 µM |  | > 100 µM | > 100 µM | > 100 µM |  | > 100 µM |  | > 100 µM |  |  |  |  |  |  |  |  |  |  |

Source: PubChem BioAssay (NCI)
